The text below walks through data of ChEMBL document CHEMBL5325407, “Structure-based development of potent Plasmodium falciparum M1 and M17 aminopeptidase selective and dual inhibitors via S1'-region optimisation” (Eur J Med Chem, 2023).

pEC50, pKi: −log10 of the molar value. Values after ≈ are worked out from the molar mass of the structure shown. Active and inactive are the calls of the source. The rule behind the calls is not given here.

The nature of data set [1]: Kinetic solubility of the compound in phosphate buffer at pH 6.5 measured after 30 mins by nephelometric analysis. The data set is classed as physicochemical. The note with it: read-out: Kinetic_solubility.
Data set [2] is described as follows: Kinetic solubility of the compound in 0.01 M HCL at pH 2.0 measured after 30 mins by nephelometric analysis. It counts as physicochemical. The note with it: read-out: Kinetic_solubility.
Data set [3] relates to Plasmodium falciparum. The experiment in a line: Antiplasmodial activity against drug-sensitive Plasmodium falciparum 3D7 infected in Red blood cell assessed as growth inhibition measured after 72 hrs by LDH assay. It counts as functional, organism-based. The note with it: 3D7, Erythrocyte.
A short description of data set [4]: Metabolic stability in mouse liver microsomes assessed as half life measured for 60 mins in presence of NADPH. The data set is classed as ADME, Microsome. A general note: Liver microsomes are a subcellular fraction often used to study metabolism.
A short description of data set [5]: Inhibition of TEV-fused Plasmodium falciparum M1 aminopeptidase (192 to 1085 residues) expressed in Escherichia coli Rosetta 2 (DE3) cells using alanine para-nitroanilide as substrate assessed as apparent inhibition constant measured after 30 mins by spectrophotometric analysis. The note with it: read-out: Ki(app).
The nature of data set [6]: Metabolic stability in human liver microsomes assessed as half life measured for 60 mins in presence of NADPH. It counts as ADME, Microsome.
Data set [7] is described as follows: Inhibition of TEV-fused Plasmodium falciparum M17 aminopeptidase (192 to 1085 residues) expressed in Escherichia coli Rosetta 2 (DE3) cells using alanine para-nitroanilide as substrate assessed as apparent inhibition constant measured after 30 mins by spectrophotometric analysis. The note with it: read-out: Ki(app).
For data set [8], the system named is Plasmodium falciparum. The experiment in a line: Inhibition of C-terminal 6-His tagged Plasmodium falciparum M1 aminopeptidase (195 to 1085 residues) expressed in Escherichia coli BL21(DE3) cells using H-Leu-NHMec as substrate at less than 500 nM preincubated for 10 mins followed by substrate addition by spectrofluorimetric analysis.
A short description of data set [9]: Inhibition of C-terminal 6-His tagged Plasmodium falciparum M1 aminopeptidase (195 to 1085 residues) expressed in Escherichia coli BL21(DE3) cells using H-Leu-NHMec as substrate assessed as apparent inhibition constant preincubated for 10 mins followed by substrate addition by spectrofluorimetric analysis. The note with it: read-out: Ki(app).
Data set [10] is described as follows: Inhibition of C-terminal 6-His tagged Plasmodium falciparum M17 aminopeptidase (85 to 605 residues) expressed in Escherichia coli BL21 (DE3) cells using H-Leu-NHMec as substrate assessed as apparent inhibition constant preincubated for 10 mins followed by substrate addition by spectrofluorimetric analysis. The note with it: read-out: Ki(app).
The subject of data set [11] is Plasmodium falciparum. The experiment in a line: Inhibition of C-terminal 6-His tagged Plasmodium falciparum M17 aminopeptidase (85 to 605 residues) expressed in Escherichia coli BL21 (DE3) cells using H-Leu-NHMec as substrate at less than 500 nM preincubated for 10 mins followed by substrate addition by spectrofluorimetric analysis.
Data set [12] can be described thus: Inhibition of C-terminal 6-His tagged Plasmodium falciparum M1 aminopeptidase (195 to 1085 residues) expressed in Escherichia coli BL21(DE3) cells using H-Leu-NHMec as substrate assessed as initial inhibition constant preincubated for 10 mins followed by substrate addition by spectrofluorimetric analysis.

What is called pEC50 is the EC50 on a negative log10 scale, so that one unit is a factor of ten. Broadly, the half-life is how long it takes for the measured level to halve. The term pKi denotes the negative decadic logarithm of the Ki, by convention in mol/L. For the compound `CC(C)(C)CC(=O)NC(C(=O)NO)c1ccc(-c2cc(F)c(F)c(F)c2)cc1` (stereo not given), the solubility kinetic at 0.5 h in data set [1] and in [2] was 12.5 µg/mL (≈ 31.7 µM) in each case. Besides, in data set [3], the pEC50 was 7.20. For the same compound, the results for the half-life in data set [4] and in data set [6] were 1.5 h and 2.48 h, respectively. Also, the values for the pKi in data set [5] and in data set [7] were 6.57 and 7.00, respectively.
As to `O=C(NC(C(=O)NO)c1ccc(-c2cc(F)c(F)c(F)c2)cc1)c1cc2ccccc2[nH]1` (stereo not given), the inhibition entry in data set [8] and in [11] was “inactive” each time. Moreover, the pKi in data set [9] and in data set [10] was below 6.30 throughout.
Take `O=C(CNc1cc(F)cc(F)c1)NC(C(=O)NO)c1ccc(-c2cc(F)c(F)c(F)c2)cc1` (stereo not given): the pKi in data set [9] was 6.88; in data set [10] it was below 6.30; in [12], 6.29. For the same compound, the pEC50 in [3] was 6.17.
